Laboratory results taken from ChEMBL document CHEMBL5104182, “Design and Synthesis of a 2-Amino-pyridine Derivative as a Potent CDK8 Inhibitor for Anti-colorectal Cancer Therapy” (J Med Chem, 2022).
The source made the active and inactive calls. The calls are words filed in the database; no cut-off is given here.

What was measured:
[1] = test system: CT26; experiment: Anticancer activity against mouse CT26 cells transplanted in […] mouse assessed as reduction in tumor volume at 10 to 40 mg/kg, po daily measured after 21 days; assay type: functional, organism-based; conditions: dose 10-40 mg/kg, time 21.0 day
[2] = test system: HCT-116; experiment: Induction of cell cycle arrest in human HCT-116 cells assessed as decrease in p-Rb S780 level incubated for 24 hrs by Western blot analysis; assay type: functional, cell-based
[3] = Oral bioavailability in Sprague-Dawley rat at 10 mg/kg upto 24 hrs by HPLC analysis; assay type: ADME, organism-based; conditions: in vivo
[4] = Toxicity in ICR mouse assessed as lung damage at 1000 mg/kg, using gastric tube by H&E staining assay; assay type: organism-based; conditions: in vivo, po, route ig
[5] = test system: CT26; experiment: Anticancer activity against mouse CT26 cells transplanted in […] mouse assessed as reduction in tumor growth at 10 to 40 mg/kg, po daily measured after 21 days; assay type: functional, organism-based; conditions: dose 10-40 mg/kg, time 21.0 day
[6] = Toxicity in ICR mouse assessed as liver damage at 1000 mg/kg, using gastric tube by H&E staining assay; assay type: organism-based; conditions: in vivo, po, route ig
[7] = Toxicity in Balb/c mouse assessed as ALT level in serum at 1000 mg/kg, using gastric tube; assay type: organism-based; conditions: in vivo, po, route ig
[8] = test system: HCT-116; experiment: Induction of cell cycle arrest in human HCT-116 cells assessed as increase in cells at G2/M phase measured after 48 hrs by flow cytometry; assay type: functional, cell-based
[9] = test system: HCT-116; experiment: Induction of cell cycle arrest in human HCT-116 cells assessed as decrease in CDK6 level incubated for 24 hrs by Western blot analysis; assay type: functional, cell-based
[10] = test system: CT26; experiment: In vivo inhibition of CDK8 in mouse CT26 cells transplanted in […] mouse assessed as downregulation of c-Myc in tumor at 10 to 40 mg/kg, po daily measured after 21 days; assay type: functional, organism-based; conditions: dose 10-40 mg/kg, time 21.0 day
[11] = test system: HCT-116; experiment: Induction of cell cycle arrest in human HCT-116 cells assessed as increase in E2F1 level incubated for 24 hrs by Western blot analysis; assay type: functional, cell-based
[12] = organism: Homo sapiens; experiment: Selectivity ratio of IC50 for human CDK6 to IC50 for human CDK8
[13] = Cytotoxicity against human GES1 cells assessed as cell viability incubated for 48 hrs by MTT assay; assay type: toxicity, cell-based
[14] = MRT in Sprague-Dawley rat at 2 mg/kg, iv upto 24 hrs by HPLC analysis; assay type: ADME, organism-based; conditions: in vivo
[15] = MRT in Sprague-Dawley rat at 10 mg/kg, po upto 24 hrs by HPLC analysis; assay type: ADME, organism-based; conditions: in vivo
[16] = Tmax in Sprague-Dawley rat at 10 mg/kg, po upto 24 hrs by HPLC analysis; assay type: ADME, organism-based; conditions: in vivo
[17] = test system: SW480; experiment: Antiproliferative activity against human SW480 cells assessed as cell viability incubated for 48 hrs by MTT assay; assay type: functional
[18] = Half life in Sprague-Dawley rat at 10 mg/kg, po upto 24 hrs by HPLC analysis; assay type: ADME, organism-based; conditions: in vivo
[19] = target: T1, Cyclin-dependent kinase 8 (Homo sapiens, UniProt P49336); experiment: Binding affinity to CDK8 in human HCT-116 cells assessed as increase in degradation temperature of protein by CETSA (reference value: 49 degC); assay type: cell-based
T1 sequence (P49336 whole entry): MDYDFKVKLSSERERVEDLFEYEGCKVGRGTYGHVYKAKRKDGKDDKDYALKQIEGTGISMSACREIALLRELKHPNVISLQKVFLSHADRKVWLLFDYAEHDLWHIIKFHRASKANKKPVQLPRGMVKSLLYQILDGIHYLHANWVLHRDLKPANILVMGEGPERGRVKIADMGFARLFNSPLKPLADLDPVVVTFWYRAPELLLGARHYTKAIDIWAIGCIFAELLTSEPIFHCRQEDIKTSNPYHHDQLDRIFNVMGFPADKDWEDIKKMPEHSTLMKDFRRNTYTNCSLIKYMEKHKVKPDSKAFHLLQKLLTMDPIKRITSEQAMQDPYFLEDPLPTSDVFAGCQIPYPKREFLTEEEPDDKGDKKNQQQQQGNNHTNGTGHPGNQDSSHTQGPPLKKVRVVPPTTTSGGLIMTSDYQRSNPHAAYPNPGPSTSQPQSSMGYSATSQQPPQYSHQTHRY

[20] = target: Cyclin-dependent kinase 6 (Homo sapiens, UniProt Q00534); experiment: Inhibition of CDK6 (unknown origin) assessed as inhibition rate
Chain of Cyclin-dependent kinase 6 (Q00534 whole entry): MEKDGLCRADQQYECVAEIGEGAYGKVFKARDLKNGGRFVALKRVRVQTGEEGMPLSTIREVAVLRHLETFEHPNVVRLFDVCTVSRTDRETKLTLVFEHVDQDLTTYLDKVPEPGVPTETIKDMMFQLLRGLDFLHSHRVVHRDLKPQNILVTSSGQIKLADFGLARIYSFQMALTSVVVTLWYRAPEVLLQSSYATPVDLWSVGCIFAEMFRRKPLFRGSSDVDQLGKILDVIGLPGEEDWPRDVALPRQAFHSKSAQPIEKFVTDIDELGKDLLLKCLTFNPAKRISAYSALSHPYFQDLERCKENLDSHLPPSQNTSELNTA

[21] = test system: HCT-116; experiment: Antiproliferative activity against sorafenib-resistant human HCT-116 cells assessed as cell viability incubated for 48 hrs by MTT assay; assay type: functional
[22] = Toxicity in Balb/c mouse assessed as MPO level in serum at 1000 mg/kg, using gastric tube; assay type: organism-based; conditions: in vivo, po, route ig
[23] = target: T1, Cyclin-dependent kinase 8; conditions: dose 200.0 nM
[24] = organism: Homo sapiens; experiment: Selectivity ratio of IC50 for human CDK7 to IC50 for human CDK8
[25] = test system: HCT-116; experiment: Reduction in P-gp expression in sorafenib-resistant human HCT-116 cells by Western blot analysis; assay type: functional, cell-based; conditions: dose 1-4 µM, DDE = dose-dependent effect
[26] = AUC (0 to infinitive) in Sprague-Dawley rat at 10 mg/kg, po upto 24 hrs by HPLC analysis; assay type: ADME, organism-based; set-up: dose 10 mg/kg, time < 24 hrs, route po; conditions: in vivo
[27] = target: T1, Cyclin-dependent kinase 8; experiment: Binding affinity to CDK8-Flag (unknown origin) transfected in HEK293T cells; assay type: cell-based
[28] = Cmax in Sprague-Dawley rat at 10 mg/kg, po upto 24 hrs by HPLC analysis; assay type: ADME, organism-based; set-up: time < 24 hrs, dose 10 mg/kg, route po; conditions: in vivo
[29] = test system: CT26; experiment: In vivo inhibition of CDK8 in mouse CT26 cells transplanted in […] mouse assessed as upregulation of E2F1 in tumor at 10 to 40 mg/kg, po daily measured after 21 days; assay type: functional, organism-based; conditions: dose 10-40 mg/kg, time 21.0 day
[30] = test system: HCT-116; experiment: Antiproliferative activity against human HCT-116 cells assessed as cell viability incubated for 48 hrs by MTT assay; assay type: functional
[31] = test system: HCT-116; experiment: Induction of cell cycle arrest in human HCT-116 cells assessed as increase in cells at S phase measured after 48 hrs by flow cytometry; assay type: functional, cell-based
[32] = test system: HCT-116; experiment: Decrease in Lef expression in human HCT-116 cells at 1 to 4 uM incubated for 48 hrs by western blotting analysis; assay type: functional, cell-based; conditions: dose 1-4 µM
[33] = target: T1, Cyclin-dependent kinase 8; experiment: Inhibition of CDK8 (unknown origin) assessed as inhibition rate
[34] = target: T1, Cyclin-dependent kinase 8; experiment: Inhibition of CDK8 in human HCT-116 cells assessed as inhibition of […] phosphorylation at Tyr701 by Western blot analysis; assay type: cell-based
[35] = test system: HCT-116; experiment: Decrease in TCF1 expression in human HCT-116 cells at 1 to 4 uM incubated for 48 hrs by western blotting analysis; assay type: functional, cell-based; conditions: dose 1-4 µM
[36] = target: T1, Cyclin-dependent kinase 8; experiment: Inhibition of CDK8 in human HCT-116 cells assessed as inhibition of STAT1 phosphorylation at Ser727 by Western blot analysis; assay type: cell-based
[37] = test system: HCT-116; experiment: Decrease in Cyclin D1 expression in human HCT-116 cells at 1 to 4 uM incubated for 48 hrs by western blotting analysis; assay type: functional, cell-based; conditions: dose 1-4 µM
[38] = AUC (0 to infinitive) in Sprague-Dawley rat at 2 mg/kg, iv upto 24 hrs by HPLC analysis; assay type: ADME, organism-based; set-up: time < 24 hrs, dose 2 mg/kg, route iv; conditions: in vivo
[39] = Cmax in Sprague-Dawley rat at 2 mg/kg, iv upto 24 hrs by HPLC analysis; assay type: ADME, organism-based; set-up: dose 2 mg/kg, time < 24 hrs, route iv; conditions: in vivo
[40] = target: T1, Cyclin-dependent kinase 8; experiment: Binding affinity to CDK8 in human HCT-116 cells by measuring competition with biotinylated (1-(4-((6-aminopyridin-3-yl)oxy)phenyl)-3-(3-(trifluoromethyl)-phenyl)urea hydrochloride); assay type: cell-based
[41] = test system: CT26; experiment: Antiproliferative activity against […] cells assessed as cell viability incubated for 48 hrs by MTT assay; assay type: functional; conditions: Mus musculus
[42] = test system: HCT-116; experiment: Decrease in LRP6 expression in human HCT-116 cells at 1 to 4 uM incubated for 12 hrs by western blotting analysis; assay type: functional, cell-based; conditions: dose 1-4 µM
[43] = target: Cyclin-dependent kinase 7 (Homo sapiens, UniProt P50613); experiment: Inhibition of CDK7 (unknown origin) assessed as inhibition rate
Chain of Cyclin-dependent kinase 7 (P50613 whole entry): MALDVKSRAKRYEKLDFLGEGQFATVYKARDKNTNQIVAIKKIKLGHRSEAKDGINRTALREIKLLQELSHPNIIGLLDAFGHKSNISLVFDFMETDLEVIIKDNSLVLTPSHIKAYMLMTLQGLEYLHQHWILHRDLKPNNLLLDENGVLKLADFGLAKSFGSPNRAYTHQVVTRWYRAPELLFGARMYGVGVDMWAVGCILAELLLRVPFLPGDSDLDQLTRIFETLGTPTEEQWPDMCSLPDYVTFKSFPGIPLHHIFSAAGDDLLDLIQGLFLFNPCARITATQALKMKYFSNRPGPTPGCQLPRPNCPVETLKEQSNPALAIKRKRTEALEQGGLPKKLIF

[44] = Toxicity in ICR mouse assessed as abnormal behavior at 1000 mg/kg, using gastric tube; assay type: organism-based; conditions: in vivo, po, route ig
[45] = test system: HCT-116; experiment: Decrease in beta-catenin/TCF combination expression in human HCT-116 cells transfected with TOPFLASH at 1 to 4 uM incubated for 24 hrs by luciferase assay; assay type: functional, cell-based; conditions: dose 1-4 µM

Q: Which Activity [1] does the source give for `Nc1ccc(Oc2ccc(NC(=O)Nc3cccc(C(F)(F)F)c3)cc2)cn1` here?
A: Active

Q: And the Activity [2]?
A: Active

Q: What about the bioavailability [3] of the same compound?
A: 31.7%

Q: What about the Activity [4] of the same compound?
A: Non-Toxic

Q: What about the Activity [5] of the same compound?
A: Active

Q: And the Activity [6]?
A: Non-Toxic

Q: And the Activity [7]?
A: Non-Toxic

Q: And the Activity [8]?
A: Active

Q: What about the Activity [9] of the same compound?
A: Active

Q: And the Activity [10]?
A: Active

Q: And the Activity [11]?
A: Active

Q: What about the Ratio IC50 [12] of the same compound?
A: 2

Q: And the GI50 at 48 h [13]?
A: 62.7 µM

Q: And the MRT [14]?
A: 0.9 h

Q: What about the MRT [15] of the same compound?
A: 1.6 h

Q: And the Tmax [16]?
A: 0.8 h

Q: What about the GI50 [17] of the same compound?
A: 2.4 µM

Q: And the half-life [18]?
A: 1.1 h

Q: What about the Tm [19] of the same compound?
A: 55 °C

Q: What about the IC50 [20] of the same compound?
A: 0.251 µM

Q: And the GI50 [21]?
A: 17.5 µM

Q: And the Activity [22]?
A: Non-Toxic

Q: What about the inhibition [23] of the same compound?
A: 73.6%

Q: And the Ratio IC50 [24]?
A: 2

Q: What about the Activity [25] of the same compound?
A: Dde

Q: And the AUC(0-inf) [26]?
A: 665 ng·h/mL

Q: And the Activity [27]?
A: Active

Q: What about the Cmax [28] of the same compound?
A: 453 ng/mL

Q: What about the Activity [29] of the same compound?
A: Active

Q: What about the GI50 [30] of the same compound?
A: 1.2 µM

Q: What about the Activity [31] of the same compound?
A: Active

Q: And the Activity [32]?
A: Active

Q: What about the IC50 [33] of the same compound?
A: 0.0465 µM

Q: What about the inhibition [34] of the same compound?
A: Active

Q: What about the Activity [35] of the same compound?
A: Active

Q: What about the inhibition [36] of the same compound?
A: Active

Q: What about the Activity [37] of the same compound?
A: Active

Q: What about the AUC(0-inf) [38] of the same compound?
A: 382 ng·h/mL

Q: What about the Cmax [39] of the same compound?
A: 318 ng/mL

Q: What about the Activity [40] of the same compound?
A: Active

Q: What about the GI50 [41] of the same compound?
A: 5.5 µM

Q: And the Activity [42]?
A: Active

Q: And the IC50 [43]?
A: 0.0996 µM

Q: What about the Activity [44] of the same compound?
A: Non-Toxic

Q: What about the Activity [45] of the same compound?
A: Active
